Measurements from ChEMBL document CHEMBL4251634, “Synthesis and antimicrobial activity of pyrimidinyl 1,3,4-oxadiazoles, 1,3,4-thiadiazoles and 1,2,4-triazoles” (2018).
The source made the active and inactive calls. The calls are words filed in the database; no cut-off is given here.

Columns and labels:
Assay type in all cases: functional
[1] = tested on: Pseudomonas aeruginosa; experiment: Antibacterial activity against Pseudomonas aeruginosa assessed as diameter of inhibition zone at 25 ug/well after 24 hrs by agar well diffusion method; conditions: for zone of inhibition at 25 µg/disc: read-out: DIZ
[2] = tested on: Bacillus subtilis; experiment: Antibacterial activity against Bacillus subtilis assessed as diameter of inhibition zone at 50 ug/well after 24 hrs by agar well diffusion method; conditions: for zone of inhibition at 50 µg/disc: read-out: DIZ
[3] = tested on: Penicillium chrysogenum; experiment: Antifungal activity against Penicillium chrysogenum assessed as diameter of inhibition zone at 25 ug/well after 48 hrs by agar well diffusion method; conditions: for zone of inhibition at 25 µg/disc: read-out: DIZ
[4] = tested on: Bacillus subtilis; experiment: Antibacterial activity against Bacillus subtilis assessed as diameter of inhibition zone at 25 ug/well after 24 hrs by agar well diffusion method; conditions: for zone of inhibition at 25 µg/disc: read-out: DIZ
[5] = tested on: Klebsiella pneumoniae; experiment: Antibacterial activity against Klebsiella pneumoniae assessed as diameter of inhibition zone at 50 ug/well after 24 hrs by agar well diffusion method; conditions: for zone of inhibition at 50 µg/disc: read-out: DIZ
[6] = tested on: Staphylococcus aureus; experiment: Antibacterial activity against Staphylococcus aureus assessed as diameter of inhibition zone at 50 ug/well after 24 hrs by agar well diffusion method
[7] = tested on: Pseudomonas aeruginosa; experiment: Antibacterial activity against Pseudomonas aeruginosa assessed as diameter of inhibition zone at 50 ug/well after 24 hrs by agar well diffusion method; conditions: read-out: DIZ
[8] = tested on: Aspergillus niger; experiment: Antifungal activity against Aspergillus niger assessed as diameter of inhibition zone at 100 ug/well after 48 hrs by agar well diffusion method; conditions: for zone of inhibition at 100 µg/disc: read-out: DIZ
[9] = tested on: Penicillium chrysogenum; experiment: Antifungal activity against Penicillium chrysogenum assessed as diameter of inhibition zone at 12.5 ug/well after 48 hrs by agar well diffusion method; conditions: for zone of inhibition at 12.5 µg/disc: read-out: DIZ
[10] = tested on: Staphylococcus aureus; experiment: Antibacterial activity against Staphylococcus aureus assessed as diameter of inhibition zone at 12.5 ug/well after 24 hrs by agar well diffusion method
[11] = tested on: Klebsiella pneumoniae; experiment: Antibacterial activity against Klebsiella pneumoniae assessed as diameter of inhibition zone at 25 ug/well after 24 hrs by agar well diffusion method; conditions: for zone of inhibition at 25 µg/disc: read-out: DIZ
[12] = tested on: Klebsiella pneumoniae; experiment: Antibacterial activity against Klebsiella pneumoniae assessed as diameter of inhibition zone at 12.5 ug/well after 24 hrs by agar well diffusion method; conditions: for zone of inhibition at 12.5 µg/disc: read-out: DIZ
[13] = tested on: Penicillium chrysogenum; experiment: Antifungal activity against Penicillium chrysogenum assessed as diameter of inhibition zone at 100 ug/well after 48 hrs by agar well diffusion method; conditions: for zone of inhibition at 100 µg/disc: read-out: DIZ
[14] = tested on: Klebsiella pneumoniae; experiment: Antibacterial activity against Klebsiella pneumoniae assessed as diameter of inhibition zone at 100 ug/well after 24 hrs by agar well diffusion method; conditions: read-out: DIZ
[15] = tested on: Aspergillus niger; experiment: Antifungal activity against Aspergillus niger assessed as diameter of inhibition zone at 12.5 ug/well after 48 hrs by agar well diffusion method; conditions: for zone of inhibition at 12.5 µg/disc: read-out: DIZ
[16] = tested on: Pseudomonas aeruginosa; experiment: Antibacterial activity against Pseudomonas aeruginosa assessed as diameter of inhibition zone at 100 ug/well after 24 hrs by agar well diffusion method; conditions: read-out: DIZ
[17] = tested on: Staphylococcus aureus; experiment: Antibacterial activity against Staphylococcus aureus assessed as diameter of inhibition zone at 25 ug/well after 24 hrs by agar well diffusion method
[18] = tested on: Staphylococcus aureus; experiment: Antibacterial activity against Staphylococcus aureus assessed as diameter of inhibition zone at 100 ug/well after 24 hrs by agar well diffusion method; conditions: for zone of inhibition at 100 µg/disc: read-out: DIZ
[19] = tested on: Pseudomonas aeruginosa; experiment: Antibacterial activity against Pseudomonas aeruginosa assessed as diameter of inhibition zone at 12.5 ug/well after 24 hrs by agar well diffusion method; conditions: for zone of inhibition at 12.5 µg/disc: read-out: DIZ
[20] = tested on: Aspergillus niger; experiment: Antifungal activity against Aspergillus niger assessed as diameter of inhibition zone at 50 ug/well after 48 hrs by agar well diffusion method; conditions: for zone of inhibition at 50 µg/disc: read-out: DIZ
[21] = tested on: Aspergillus niger; experiment: Antifungal activity against Aspergillus niger assessed as diameter of inhibition zone at 25 ug/well after 48 hrs by agar well diffusion method; conditions: for zone of inhibition at 25 µg/disc: read-out: DIZ
[22] = tested on: Bacillus subtilis; experiment: Antibacterial activity against Bacillus subtilis assessed as diameter of inhibition zone at 12.5 ug/well after 24 hrs by agar well diffusion method; conditions: for zone of inhibition at 12.5 µg/disc: read-out: DIZ
[23] = tested on: Penicillium chrysogenum; experiment: Antifungal activity against Penicillium chrysogenum assessed as diameter of inhibition zone at 50 ug/well after 48 hrs by agar well diffusion method; conditions: for zone of inhibition at 50 µg/disc: read-out: DIZ
[24] = tested on: Bacillus subtilis; experiment: Antibacterial activity against Bacillus subtilis assessed as diameter of inhibition zone at 100 ug/well after 24 hrs by agar well diffusion method; conditions: for zone of inhibition at 100 µg/disc: read-out: DIZ

| Structure (SMILES) | zone of inhibition at 25 µg/disc [1] | diameter of the inhibition zone (DIZ) [2] | zone of inhibition at 25 µg/disc [3] | diameter of the inhibition zone (DIZ) [4] | zone of inhibition at 50 µg/disc [5] | diameter of the inhibition zone (DIZ) [6] | zone of inhibition at 50 µg/disc [7] | zone of inhibition at 100 µg/disc [8] | zone of inhibition at 12.5 µg/disc [9] | diameter of the inhibition zone (DIZ) [10] | zone of inhibition at 25 µg/disc [11] | diameter of the inhibition zone (DIZ) [12] | zone of inhibition at 100 µg/disc [14] | zone of inhibition at 12.5 µg/disc [15] | zone of inhibition at 100 µg/disc [16] | diameter of the inhibition zone (DIZ) [17] | zone of inhibition at 12.5 µg/disc [19] | zone of inhibition at 50 µg/disc [20] | zone of inhibition at 25 µg/disc [21] | zone of inhibition at 100 µg/disc [24] | also measured |
| --- | --- | --- | --- | --- | --- | --- | --- | --- | --- | --- | --- | --- | --- | --- | --- | --- | --- | --- | --- | --- | --- |
| Cc1cc(SCc2nnc(-c3ccccc3)o2)nc(SCc2nnc(-c3ccccc3)o2)n1 | 9 mm | inactive | 10 mm | inactive | 9 mm | inactive | 11 mm | 21 mm | 8 mm | inactive | 7 mm | inactive | 12 mm | 14 mm | 14 mm | inactive | 7 mm | 18 mm | 16 mm | 7 mm | zone of inhibition at 100 µg/disc [13]: 13 mm; diameter of the inhibition zone (DIZ) [18]: inactive; diameter of the inhibition zone (DIZ) [22]: inactive; zone of inhibition at 50 µg/disc [23]: 11 mm |
| COc1ccc(-c2nnc(CSc3cc(C)nc(SCc4nnc(-c5ccc(OC)cc5)s4)n3)s2)cc1 |  | inactive |  | inactive |  | inactive | 8 mm |  |  | inactive |  | inactive | 13 mm |  | 10 mm | inactive |  |  |  |  | diameter of the inhibition zone (DIZ) [1]: inactive; diameter of the inhibition zone (DIZ) [3]: inactive; diameter of the inhibition zone (DIZ) [5]: inactive; diameter of the inhibition zone (DIZ) [8]: inactive; diameter of the inhibition zone (DIZ) [9]: inactive; diameter of the inhibition zone (DIZ) [11]: inactive; diameter of the inhibition zone (DIZ) [13]: inactive; diameter of the inhibition zone (DIZ) [15]: inactive; diameter of the inhibition zone (DIZ) [18]: inactive; diameter of the inhibition zone (DIZ) [19]: inactive; diameter of the inhibition zone (DIZ) [20]: inactive; diameter of the inhibition zone (DIZ) [21]: inactive; diameter of the inhibition zone (DIZ) [22]: inactive; diameter of the inhibition zone (DIZ) [23]: inactive; diameter of the inhibition zone (DIZ) [24]: inactive |
| Cc1cc(SCc2nnc(-c3ccccc3)n2N)nc(SCc2nnc(-c3ccccc3)n2N)n1 | 16 mm |  | 12 mm |  | 22 mm |  | 19 mm | 24 mm | 11 mm |  | 19 mm |  | 24 mm | 17 mm | 23 mm |  | 14 mm | 21 mm | 19 mm | 17 mm | zone of inhibition at 50 µg/disc [2]: 14 mm; zone of inhibition at 25 µg/disc [4]: 12 mm; zone of inhibition at 50 µg/disc ([6]; read-out: DIZ): 10 mm; zone of inhibition at 12.5 µg/disc ([10]; read-out: DIZ): 8 mm; zone of inhibition at 12.5 µg/disc [12]: 17 mm; zone of inhibition at 100 µg/disc [13]: 16 mm; zone of inhibition at 25 µg/disc ([17]; read-out: DIZ): 9 mm; zone of inhibition at 100 µg/disc [18]: 12 mm; zone of inhibition at 12.5 µg/disc [22]: 10 mm; zone of inhibition at 50 µg/disc [23]: 14 mm |
| Cc1ccc(-c2nnc(CSc3cc(C)nc(SCc4nnc(-c5ccc(C)cc5)s4)n3)s2)cc1 | 12 mm |  |  |  | 18 mm | inactive | 15 mm | 15 mm |  | inactive | 16 mm |  | 20 mm | 9 mm | 19 mm | inactive | 10 mm | 13 mm | 11 mm | 13 mm | zone of inhibition at 50 µg/disc [2]: 11 mm; diameter of the inhibition zone (DIZ) [3]: inactive; zone of inhibition at 25 µg/disc [4]: 10 mm; diameter of the inhibition zone (DIZ) [9]: inactive; zone of inhibition at 12.5 µg/disc [12]: 14 mm; diameter of the inhibition zone (DIZ) [13]: inactive; zone of inhibition at 100 µg/disc [18]: 8 mm; zone of inhibition at 12.5 µg/disc [22]: 8 mm; diameter of the inhibition zone (DIZ) [23]: inactive |
